From patent publication US11369585B2, “Compositions, methods, systems and/or kits for preventing and/or treating neoplasms” (Research Cancer Institute of America, priority 2017, dated 2022)

Key:
[1] = tested on: triple negative breast cancer; conditions: cited from earlier work
[2] = tested on: stage four pancreatic cancer; assay: Case study 3: laboratory tests (VEGF, IL-8, TGF, CA 19.9); format: in vivo, human; conditions: two months without epigenetic therapies, Lynparza continued; increased from 8565
Source text: (§1) This is a case study of a person with history of stage four pancreatic cancer who was diagnosed after abdominal pain, with adenocarcinoma of pancreas metastasized to their liver. They had explored all potential therapies and their oncologist had given them less than 3 months to live and had referred them to hospice.
They were immediately started on daily IV epigenetic therapies in combination with PARP inhibitors, which they received for two weeks after which their laboratory tests were repeated.
(§2) After two weeks of epigenetic therapies, his VEGF decreased from 248 to 70.
(§3) Thus, Lynparza alone was not sufficient to retard tumor growth. Upon their return to the clinic, their tumor marker CA 19.9 was analyzed.

[3] = tested on: cfDNA somatic alterations; assay: Case study 3: Guardant360 % cfDNA with somatic alterations; format: in vivo, human; conditions: Lynparza alone
Source text: Therefore, clinical correlation is advised.
as §2
For example, KRAS mutant allele frequency (MAF) decreased from over 50 percent to 5.6, TP53 decreased from over 50 percent down to 5.1 percent (FIG. 19).

[4] = tested on: adenocarcinoma of pancreas metastasized to liver; assay: Case study 3: clinical course; format: in vivo, human; conditions: epigenetic therapies stopped, Lynparza continued
Source text: as §1
They were able to walk again independently. They started to do clinically well. […] Edema in their lower extremities improved.
as §3

[5] = tested on: serous ovarian carcinoma lesions; assay: Case study 2: whole body PET scan and abdominal CT scan restaging; conditions: Niraparib 300 mg daily only
[6] = cited from earlier work
glioma cells = conditions: cited from earlier work
[7] = abdominal CT about one month after stopping epigenetic therapies, from 16 mm

NC(=O)c1ccc(I)c([N+](=O)[O-])c1 [Iniparib]
phase II trial outcome ([1]; in vivo): promising results
survival in phase III trial ([1]; patients also received cytotoxic chemotherapy): no improvement in survival

O=C(c1cc(Cc2n[nH]c(=O)c3ccccc23)ccc1F)N1CCN(C(=O)C2CC2)CC1 [Lynparza]
tumor marker CA 19.9 [2]: 45988
cfDNA gene alterations (FGF2, C Myc, EGFR, PI3K, CDK4, CDK6, NF-1, KIT, TP53, PDGF, KRAS, BRCA1) [3]: did not change
disease course [4]: their disease progressed

NC(=O)c1cccc2cn(-c3ccc([C@@H]4CCCNC4)cc3)nc12 [Niraparib]
abdominal mesenteric artery LN size [5, 7]: 28 mm
retroperitoneal node size [5, 7]: 21 mm
periaortic nodes size ([5]; abdominal CT about one month after stopping epigenetic therapies, from 24 mm): 32 mm
overall response on abdominal CT scan ([5]; about one month after stopping epigenetic therapies): mixed response with progression

O=c1c(O)c(-c2ccc(O)c(O)c2)oc2cc(O)cc(O)c12 [quercetin]
water solubility [6]: not water soluble
effect on angiogenesis (glioma cells): suppression of angiogenesis
